Data on ten molecules can be found in patent US5360796A, “Imidazo[1,2-a]pyridinylalkyl phosphonic acid compounds for treatment of neurotoxic injury” (G. D. Searle & Co., priority 1991, dated 1994).

The test system of one assay is cGMP in cerebellum. Nature of the assay: Assay for Effect on cGMP Levels in Cerebellum. It counts as in vivo, mouse (Swiss-Webster). Particulars: Mus musculus, sc, 0.5 h; 30 min prior to sacrifice; read-out: Decrease in cGMP ED50. The procedure:
The purpose of this assay is to determine the extent of in vivo bioavailability and the potency as an NMDA antagonist of compound of the invention as compared to known NMDA antagonists, namely, 3(2-carboxypiperizine-4-yl)propyl-1-phosphonic acid (CPP) and cis-4-phosphonomethyl-2-piperidinecarboxylic acid (CGS 19755). Male Swiss-Webster mice (17-24 g were injected sub-cutaneously (s.c.) with compound of the invention and the known NMDA antagonist standards 30 minutes prior to sacrifice by focussed microwave irradiation. Groups consisted of 7-10 mice. Compounds of Ex. #7 was dissolved in isotonic saline and all compounds were administered in a volume of 0.2 ml per mouse. Cerebella samples were extracted in IN HCl. Hydrochloric acid in extracts of the cerebellum were freeze-dried for assay of cGMP with a commercial RIA kit (NEN). Statistics (Dunett's t-test) were performed as described previously [P. L. Wood et al., Neurochem., 19, 975-982 (1980)]. ED50 values were calculated from log-logit transformation of the dose-response data.

In another assay the test system is NMDA. Particulars: D. E. Murphy et al, J. Pharmacol. Exp. Ther. 1987; cited from earlier work.
The next assay deals with AMPA. Nature of the assay: [3H]AMPA (QUIS) binding assay. Also noted: species or system rat. Particulars: 10 nM [3H]AMPA, 100 mM KSCN, synaptic plasma membranes, pH 7.4, 0-4° C., 10 min; read-out: NMDA Receptor Binding Data, Ki IC50 Binding AMPA. The procedure: (§1) Synaptic plasma membranes (SPM) were prepared as previously described [Monahah, J. B. and Michel, J., "Identification and Characterization of an N-methyl-D-aspartate-specific L[^3 H]glutamate Recognition Site in Synaptic Plasma Membranes, J. Neurochem., 48, 1699-1708 (1987)]. The SPM were stored at a concentration of 10-15 mg/ml in 0.32M sucrose, 0.5 mM EDTA, 1 mM MgSO4, 5 mM Tris/SO4, pH 7.4, under liquid nitrogen. The identity and purity of the subcellular fractions were confirmed by both electron microscopy and marker enzymes. Protein concentrations were determined by using a modification of the method of Lowry [Ohnishi, S. T. and Barr, J. K., "A Simplified Method of Quantitating Proteins using the Biuret and Phenol Reagents", Anal. Biochem., 86, 193-197 (1978)]. The SPM were treated identically for the [^3 H]AMPA (QUIS), [^3 H]kainate and sodium-dependent L-[^3 H]-glumatate binding assays. The SPM were thawed at room temperature, diluted twenty-fold with 50mM Tris/acetate, pH 7.4, incubated at 37° C. for 30 minutes, and centrifuged at 100,000 g for 15 minutes. The dilution, incubation, and centrifugation was repeated a total of three times. Prior to use in the NMDA-specific L-[^3 H]-glutamate binding assay the SPM were thawed, diluted twenty fold with 50 mM Tris/acetate, pH 7.4 containing 0.04% (v/v) Triton X-100, incubated for 30 minutes at 37° C. and centrifuged as described above. The Triton X-100 treated membranes were washed with 50 mM Tris/acetate, pH 7.4 and centrifuged at 100,000 g for 15 minutes a total of four times. […] The basic procedure for the receptor subclass binding assays was similar. This general method involved adding the radioligand (12.5 nM L-[^3 H] glutamate; 0.5 nM [^3 H]kainate or 10 nM [^3 H]AMPA) to the appropriate concentration of the test compound and initiating the assay by the addition of ice cold synaptic plasma membranes (0.2-0.45 mg). The binding assays were performed in 1.5 mL centrifuge tubes with the total volume adjusted to 1.0 mL. Additions of test compounds were made in 50 mM Tris/acetate, pH 7.4 and incubations were carried out at 0°-4° C. The incubation time for the NMDA and the AMPA binding assays was 10 minutes, for the kainate binding assay 60 minutes and for the sodium-dependent glutamate binding assay 15 minutes. The AMPA binding assay contained 100 mM KSCN and the sodium-dependent glutamate binding assay contained 150 mM sodium acetate in addition to the previously described reagents. To terminate the incubation, the samples were centrifuged for 15 minutes at 12,000 g and 4° C. in a Beckman Microfuge 12. The supernatant was aspirated and the pelleted membranes dissolved in Beckman BTS-450 tissue solubilizer for a minimum of 6 hours at room temperature. Beckman MP scintillation cocktail containing 7 mL/1 acetic acid was then added and the samples counted on a Beckman LS 5800 or 3801 liquid scintillation counter with automatic corrections for quenching and counting efficiency. Nonspecific binding was defined as the residual binding in the presence of either excess L-glutamate (0.1-0.4 mM), kainate (0.01 mM), or NMDA (0.5 mM), and was 15-25% of the total binding in the NMDA binding assay, 19-27% in the AMPA binding assay, 20-30% in the kainate binding assay and 10-15% in the sodium-dependent binding assay. Radioligand binding to the synaptic plasma membranes was analyzed using Scatchard and Hill transformations and the Ki values of the compounds determined using logit-log transformations. Calculations and regression analysis were performed using templates developed for Lotus 1, 2, 3 as previously described [Pullan, L. M. "Automated Radioligand Receptor Binding Analysis with Templates for Lotus", Computer Appln. Biosci., 3, 131 (1987)]. Binding results are reported in Table I for example compounds of the invention.

The next assay deals with NMDA receptor. Nature of the assay: NMDA-Selective Glutamate Binding Assay (L-[3H]glutamate). Also noted: species or system rat. Particulars: 12.5 nM L-[3H]glutamate, synaptic plasma membranes, read-out: NMDA Receptor Binding Data, Ki IC50 Binding NMDA. The procedure: as §1
The target of assay [1] is TCP (1-[1-(2-thienyl)cyclohexyl]piperidine) binding. Briefly: TCP Modulation Assay. More on the design: species or system rat. Particulars: for Ki: 2 nM tritiated TCP, 0.05 mM L-glutamate, rat brain SPM, read-out: TCP Ki IC50. The procedure:
The effect on the TCP (1-[1-(2-thienyl)cyclohexyl]piperidine) binding was measured in rat brain synaptic membranes (SPM) prepared as previously described [J. B. Monahah & J. Michel; J. Neurochem. […] Prior to their use in the binding assay, frozen SPM were thawed, diluted twenty fold with 50 mM Tris/acetate (pH 7.4 containing 0.04% (v/v) Triton X-100), incubated for 30 min. at 37° C. and centrifuged at 95,000 xg for 15 min. The Triton X-100 treated SPM were washed with 5 mM Tris/HCl, pH 7.4 and centrifuged a total of six times. […] The samples were filtered through glass fiber filters (Schleicher & Schuell #32) which have been pretreated with 0.05% (v/v) polyethylenimine, washed 4 times with 2 ml of ice-cold 5 mM Tris/HCl buffer, and then counted on a Beckman LS 5800 liquid scintillation counter with automatic corrections for quenching and counting efficiency. Inhibition of TCP binding was measured as a decrease in the binding in the presence of 0.05 mM L-glutamate. Non-specific binding was defined as the residual binding in the presence of […] phencyclidine.

Where a name gives a salt, the structure may show the parent alone. Read-outs that look alike come from different tables or passages of the source.

One may read the ED50 as the midpoint of the dose-response relation. In the case of `O=C(O)[C@H]1C[C@@H](CP(=O)(O)O)CCN1` (relative stereo) [CGS 19755, cis-4-phosphonomethyl-2-piperidinecarboxylic acid, reference compound], the ED50 in the assay with cGMP in cerebellum was 1 mg/kg.

Take `O=C(O)C1CN(CCCP(=O)(O)O)CCN1` (stereo not drawn) [CPP, 3-(2-carboxypiperazin-4-yl)propyl-1-phosphonic acid, reference compound]: in the assay with cGMP in cerebellum, the ED50 amounted to 7.4 mg/kg. Also, in the assay with NMDA, the “NMDA antagonism (in words)” value was “potent and selective NMDA antagonist”.

What is called Ki is the dissociation constant of the complex between target and ligand, obtained from inhibition or displacement. As for `O=C(O)c1cn2cc(CP(=O)(O)O)ccc2n1` [Example 13, 6-(phosphonomethyl)imidazo[1,2-a]pyridine-2-carboxylic acid], the Ki on AMPA was above 300 µM; at NMDA receptor (pH 7.4, 0-4° C., 10 min), above 100 µM.

As for `O=C(O)c1cn2ccc(CP(=O)(O)O)cc2n1` [Example 18, 7-(phosphonomethyl)imidazo[1,2-a]pyridine-2-carboxylic acid], the inhibition constant Ki on AMPA is above 300 µM; on NMDA receptor (pH 7.4, 0-4° C., 10 min), above 100 µM.

Turning to `O=C(O)c1cn2cccc(CP(=O)(O)O)c2n1` [Example 23, 8-(phosphonomethyl)imidazo[1,2-a]pyridine-2-carboxylic acid], the Ki was above 300 µM on AMPA; 4.5 µM at NMDA receptor (pH 7.4, 0-4° C., 10 min); 10.5 µM at NMDA receptor (Second batch); 14 µM in assay [1] (pH 7.4, 25° C., 60 min); 7.7 µM in assay [1] (second batch).

With `O=C(O)c1cn2c(CP(=O)(O)O)c(Cl)ccc2n1` [Example 30, 6-chloro-5-(phosphonomethyl)imidazo[1,2-a]pyridine-2-carboxylic acid], the Ki is above 300 µM at AMPA and above 100 µM on NMDA receptor (pH 7.4, 0-4° C., 10 min).

With `Cc1ccc(P(=O)(O)O)c2nc(C(=O)O)cn12` [Example 49, 5-methyl-8-phosphonoimidazo[1,2-a]pyridine-2-carboxylic acid], on NMDA receptor (pH 7.4, 0-4° C., 10 min), the Ki is above 10 µM.

Turning to `O=C(O)c1cn2c(P(=O)(O)O)cccc2n1` [Example 53, 5-phosphonoimidazo[1,2-a]pyridine-2-carboxylic acid], the Ki at NMDA receptor (pH 7.4, 0-4° C., 10 min) was above 10 µM.

With `O=C(O)c1cn2c(C(O)P(=O)(O)O)cccc2n1` (stereo not drawn) [Example 57, 5-(hydroxyphosphonomethyl)imidazo[1,2-a]pyridine-2-carboxylic acid, monohydrochloride], the Ki on AMPA is above 300 µM; at NMDA receptor (pH 7.4, 0-4° C., 10 min), 5.8 µM. The “TCP Binding Data (result in words)” value in assay [1] (no number given) is “Antag”.

As to `Cc1c(C(=O)O)nc2c(CP(=O)(O)O)cccn12` [Example 67, 3-methyl-8-(phosphonomethyl)imidazo[1,2-a]pyridine-2-carboxylic acid, monohydrochloride], the Ki was above 300 µM at AMPA and above 100 µM at NMDA receptor (pH 7.4, 0-4° C., 10 min).
